Measurements: patent US20250204515A1, “Heparanase Inhibition for Graft Protection” (University of Pittsburgh - Of the Commonwealth System of …, priority 2022, published 2025)

Tests used:
heparanase (HPSE) = test: In vitro β-D-glucuronidase activity assay (4-MUG substrate); conditions: in vitro, FIG. 8
Method: In vitro β-D-glucuronidase activity assay Heparanase activity was measured via β-Glucuronidase activity assay using 4-methylumbelliferyl-β-D-glucuronide (4-MUG) substrate (Millipore-Sigma). As a source of enzymes, platelet rich plasma (PRP) obtained from rat whole blood or rat lung whole tissue lysate, was used. […] Fluorescence (λex 360 nm/λem 460 nm) was continuously measured for 60 minutes using a fluorescence microplate reader (BioTech Synergy HTX, Agilent Technologies, Santa Clara, CA).

[1] = tested on: human lung microvascular endothelial cells (HLMVECs); test: In-vitro cellular toxicity test for HPSE inhibitor candidates; conditions: HLMVECs, 24 hours
Method: In-vitro cellular toxicity test for HPSE Inhibitor candidates: Human lung microvascular endothelial cells (HLMVECs) were obtained from the American Type Culture Collection (Rockville, MD, USA). Cells were cultured in a humidified incubator at 37° C. and 5% CO2 and grown in endothelial growth medium (EGM™-2 Endothelial Cell Growth Medium-2, Lonza, Basel, Switzerland) supplemented with 2% heat-inactivated fetal bovine serum and 0.04% hydrocortisone. Cell media was replaced every 48 hours, and the cells were split upon 80-90% confluence.
Final tested concentrations of HPSE inhibitors were calculated based upon repeatable in vitro dose-response studies. After 24 hours incubation, cell viability was confirmed by Trypan blue exclusion assay. Total mRNA was isolated using Trizol (Thermo Fisher Scientific Inc., Waltham, MA) and relative messenger RNA (mRNA) expression levels of hemeoxygenase-1 (HO-1), interleukin (IL)-6, tumor necrosis factor (TNF)-α, monocyte chemoattractant protein (MCP)-1, B-cell lymphoma 2 Associated X (Bax), B-cell lymphoma 2 (Bcl-2), B-cell lymphoma-extra-large (Bcl-xL) were quantified by SYBR Green 2-step, real-time, reverse transcription-polymerase chain reaction (RT-PCR). Relative gene expression levels were normalized to mRNA expression of glyceraldehyde-3-phosphate dehydrogenase (GAPDH) and compared to relative mRNA expression levels in control-treated HLMVEC.

rat lung grafts = test: Rat orthotopic left lung transplantation following EVLP; assay type: in vivo
Method: Rat orthotopic left lung transplantation following EVLP: Orthotopic, single-lung transplantation of the left lung was performed using the 3-cuff method. After EVLP for 4 hours, the lungs were cooled with 4° C. Perfadex on the EVLP system and stored at 4° C. for 1 hour prior to transplantation. The recipient animals were sacrificed 2 hours after reperfusion. When analyzing graft function, the native lung was clamped, 100% 02 was administered for 5 minutes through a ventilator, and the recipient's blood was sampled from the graft pulmonary vein for blood gas analysis.
(§1) Graft tissues collected after 4 hours of EVLP and 2 hours after reperfusion were examined for relative mRNA expression levels of interleukin (IL)-6, IL-1, tumor necrosis factor (TNF)-α, and glyceraldehyde-3-phosphate dehydrogenase (GAPDH). Gene expression levels were normalized to GAPDH mRNA levels.
(§2) Tissue staining and histopathological analysis: Formalin-fixed, paraffin-embedded lung tissues collected 2 hours after transplantation were sectioned to 4 μm thickness and stained with hematoxylin and eosin. In parallel, sections of tissue collected after 4 hours of EVLP were stained for immunofluorescence imaging using primary antibodies for syndecan-1 (DL-101) (#sc-12765, Santa Cruz) and caveolin-1 (#3238, Cell Signaling Technology, Danvers, MA) and with Hoechst 33342 dye (Thermo Scientific). Donkey Cy3-conjugated anti-mouse IgG (#AP192C, MilliporeSigma, Burlington, MA) and Cy5-conjugated goat anti-rabbit IgG (#A10523, Thermo Scientific) secondary antibodies were used to detect primary antibodies. Stained slides were scanned with a whole-slide image scanner (Axio Scan.Z1; Carl Zeiss AB, Oberkochen, Germany) and analyzed with digital image processing software (ZEN lite blue edition; Carl Zeiss).

[2] = tested on: glycosaminoglycans (GAGs), syndecan-1; test: Glycocalyx shedding in rat lungs during EVLP (GAGs, syndecan-1 ELISA, immunofluorescence)
Method: Syndecan-1 ELISA: Syndecan-1 concentrations in EVLP perfusate were quantitated using ELISA (Immunotag™ Rat Syndecan-1 ELISA, G-Biosciences, Geno Technology, Inc., St. Louis, MO). ELISA was performed according to the manufacturer's instructions using perfusate samples acquired after 4 hours of EVLP.
Determination of glycosaminoglycans (GAGS): The concentration of GAGs in rat EVLP perfusate at 4 hours was quantitated using 1,9-dimethylmethylene blue (DMMB, Millipore Sigma). The DMMB solution (pH˜3.0) was prepared by dissolving 16 mg/I DMMB in distilled H2O containing 3.04 g/I glycine, 1.6 g/l NaCl and 95 ml 0.1 M acetic acid. Briefly, 1 ml DMMB solution was mixed with 100 μl EVLP perfusate then incubated for 18 h at room temperature. The tubes were then centrifuged at 14,000 rpm for 20 min at 4° C. Supernatants were carefully decanted, 100 μl dissolvent buffer (4 M guanidine hydrochloride, 50 mM sodium acetate, 10% propan-1-ol, pH 6.8) was added to each pellet, and the tubes were incubated at 40° C. and vortexed until GAG-DMMB pellets were completely dissolved. GAG content in each sample was measured spectrophotometrically at 656 nm.
as §2

[3] = tested on: HPSE1, MMP2, IL-6, IL-1β, TNF-α mRNA; IκB-α; test: Real-time RT-PCR and western blotting in rat lung tissue after 4 hours of EVLP
Method: as §1
Western blotting: Total isolated proteins were extracted/resolved by 10% SDS-PAGE followed by transfer to 0.2 μm nitrocellulose membranes (Bio-Rad Laboratories, Hercules, CA, USA). Membranes were blocked with 5% non-fat milk at room temperature for 2 hours and then incubated overnight at 4° C. with the following primary antibodies: inhibitor of KB-α (IκB-α; #9242, Cell Signaling Technology, Inc., Danvers, MA) and β-actin (#A1978, Millipore-Sigma). Membranes were then incubated with either goat anti-mouse IgG (H+L) (#31430, Thermo Fisher Scientific Inc.; 1:5000) or goat anti-rabbit IgG (H+L) (#31460, Thermo Fisher Scientific Inc.; 1:3000) horseradish peroxidase-conjugated polyclonal secondary antibodies at room temperature for 2 hours. Proteins were visualized using an enhanced chemiluminescence kit (Abcam), and protein bands were imaged and analyzed using Image Lab software (Version 6.0; Bio-Rad Laboratories, Inc., Hercules, CA). The intensities of protein bands were quantitated by Image J software (National Institutes of Health, Bethesda, MD).

rat lungs = test: Rat EVLP for 4 hours with HPSE inhibitors in the perfusate: physiology, endothelial barrier, edema; conditions: heparin 1000-U/hour or SF4 1 μM in perfusate
Method: In the heparin group, 1000-U of heparin were initially added to the EVLP perfusate, then 1000-U of heparin were administered every hour during EVLP. […] Two control conditions were included in the experimental protocol: 1) sham controls (Sham) were lungs not placed on EVLP and 2) untreated controls (Control) were lungs placed on EVLP without HPSE inhibitor treatment. EVLP physiology, endothelial integrity, inflammation and glycocalyx preservation for EVLP lungs and post-transplant lung grafts were investigated across all treatment regimens.
Ex vivo lung perfusion in rats: EVLP was performed using a commercially-available rodent EVLP system (IL-2 Isolated Perfused Rat or Guinea Pig Lung System; Harvard apparatus, Holliston, MA). Acellular Steen solution was used for EVLP perfusate and medicated with methylprednisolone (Solu-Medrol®; Pfizer, Inc., New York, NY) and cephalosporin (Cefazolin; WG critical care LLC, Paramus, NJ) equally in all experimental groups. […] Pulmonary artery pressure, peak airway pressure, and airway flow were monitored continuously, and dynamic lung compliance (Cdyn) and pulmonary vascular resistance (PVR) were analyzed.
Evaluation of endothellal barrier Integrity After 4 hours of EVLP, 60 mg of Evans blue dye (EBD, Millipore-Sigma, Burlington, MA) was administered into the perfusate to assess vascular endothelial permeability. After 30 minutes of perfusion, the lung vascular bed was rinsed with 20 ml of phosphate-buffered saline (PBS), and slices of lungs were incubated in formamide (Millipore Sigma) overnight at 60° C. Absorbance of the extractant was measured at 620 nm, and EBD was normalized to dry-tissue weight.
Wet-to-Dry (W/D) weight ratio: Lung tissues collected 2 hours after transplant were immediately weighed then placed in a 60° C. oven to dry for 72 hours. Tissues were weighed again after drying to determine the wet-to-dry lung weight ratio.

[4] = 100 nM SF4, 250 mM amodiaquine, 250 mM triazolothiadiazoles
[5] = 2 hours after transplant, vs untreated control and heparin-pretreated lungs

CCN(CC)Cc1cc(Nc2ccnc3cc(Cl)ccc23)ccc1O [Amodiaquine, amodiaquine]
β-D-glucuronidase activity, dose response (heparanase (HPSE)): dose-dependent
Relative mRNA expression (compared to control) Bax ([1]; 100 nM SF4): 0.71
Relative mRNA expression (compared to control) Bcl-xl [1, 4]: 1.30
Relative mRNA expression (compared to control) HO-1 [1, 4]: 2.94
Relative mRNA expression (compared to control) IL6 [1, 4]: 13.55
Relative mRNA expression (compared to control) MCP1 [1, 4]: 3.45

Cl.O=C(O)[C@H]1CN[C@H](NC(=O)C(F)(F)F)[C@@H](O)[C@H]1O [SF4, (3S,4S,5R,6R)-4,5-dihydroxy-6-[(2,2,2-trifluoroacetyl)amino]piperidine-3-carboxylic acid]
H&E histology of grafts (rat lung grafts; 2 hours after transplant following 4 hours of EVLP): reduced swollen alveolar walls, congestion in the blood vessels, and fluid leaks
IL-1β mRNA expression (rat lung grafts; [5]): significantly lower
IL-6 mRNA expression (rat lung grafts; [5]): significantly lower
TNF-α mRNA expression (rat lung grafts; [5]): significantly lower
syndecan-1 immunofluorescent staining of lung endothelial lumen ([2]; after 4-hours EVLP, vs controls and heparin-treated): significantly increased staining
syndecan-1 concentration in EVLP perfusate ([2]; after 4 hours EVLP, SF4 vs heparin-treated, heparin vs controls): significantly lower
GAGs content in EVLP perfusate ([2]; at 4-hours EVLP, vs controls): significantly reduced
IL-1β mRNA expression ([3]; lung tissue after 4-hours EVLP): significantly downregulated
IL-6 mRNA expression ([3]; lung tissue after 4-hours EVLP): significantly downregulated
TNF-α mRNA expression ([3]; lung tissue after 4-hours EVLP): significantly downregulated
IκB-α expression (western blot) ([3]; lung tissue after 4-hours EVLP, vs control and heparin groups): significantly stabilized
HPSE1 mRNA expression ([3]; lung tissue after 4 hours of EVLP, vs sham): not altered
dynamic lung compliance (Cdyn) during EVLP (rat lungs; 4-hour EVLP, vs control): neither heparin nor SF4 altered Cdyn
Evans blue dye (EBD) accumulation in lung tissue (rat lungs; after 4-hours EVLP): markedly decreased

O=C(O)Cc1ccc2oc(-c3ccc(NC(=O)/C=C/c4ccc(Br)cc4)c(F)c3)nc2c1 [OGT-2113]
β-D-glucuronidase activity, dose response (heparanase (HPSE)): dose-dependent
